Results on 24 compounds are retold here after ChEMBL document CHEMBL1909046, “DrugMatrix in vitro pharmacology data”.

The target in assay [1] is Platelet-activating factor receptor (Homo sapiens, UniProt P25105). The format is tissue-based. Further: in other assays of this panel Not Active means under 50% inhibition at 10 µM.
A short description of assay [2]: DRUGMATRIX: Calcium Channel Type L, Phenylalkylamine radioligand binding (ligand: [3H] (-)-Desmethoxyverapamil (D-888)). The format is cell membranes, Rattus norvegicus, Wistar, Brain, Membrane. The conditions noted are these: Not Active = under 50% inhibition at 10 µM.
In another assay the target is Melanocortin receptor 5 (Homo sapiens, UniProt P33032). The format is cell membranes, HEK293, Membrane. Further: in other assays of this panel Not Active means under 50% inhibition at 10 µM.
Chain of Melanocortin receptor 5 (P33032 whole entry): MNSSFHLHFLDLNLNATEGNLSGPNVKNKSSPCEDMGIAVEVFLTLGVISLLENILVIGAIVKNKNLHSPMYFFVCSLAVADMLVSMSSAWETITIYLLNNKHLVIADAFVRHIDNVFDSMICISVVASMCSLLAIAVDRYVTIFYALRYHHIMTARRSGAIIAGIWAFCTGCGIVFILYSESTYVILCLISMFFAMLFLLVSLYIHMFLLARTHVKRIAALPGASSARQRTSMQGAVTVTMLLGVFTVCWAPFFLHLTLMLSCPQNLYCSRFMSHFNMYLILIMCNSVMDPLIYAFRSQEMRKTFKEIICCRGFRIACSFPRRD
The target in a further assay is Cannabinoid receptor 1 (Homo sapiens, UniProt P21554). The assay is classed as cell membranes, Chem-1, Membrane. The following applies: chem-1. Further: in other assays of this panel Not Active means under 50% inhibition at 10 µM.
Chain of Cannabinoid receptor 1 (P21554 whole entry): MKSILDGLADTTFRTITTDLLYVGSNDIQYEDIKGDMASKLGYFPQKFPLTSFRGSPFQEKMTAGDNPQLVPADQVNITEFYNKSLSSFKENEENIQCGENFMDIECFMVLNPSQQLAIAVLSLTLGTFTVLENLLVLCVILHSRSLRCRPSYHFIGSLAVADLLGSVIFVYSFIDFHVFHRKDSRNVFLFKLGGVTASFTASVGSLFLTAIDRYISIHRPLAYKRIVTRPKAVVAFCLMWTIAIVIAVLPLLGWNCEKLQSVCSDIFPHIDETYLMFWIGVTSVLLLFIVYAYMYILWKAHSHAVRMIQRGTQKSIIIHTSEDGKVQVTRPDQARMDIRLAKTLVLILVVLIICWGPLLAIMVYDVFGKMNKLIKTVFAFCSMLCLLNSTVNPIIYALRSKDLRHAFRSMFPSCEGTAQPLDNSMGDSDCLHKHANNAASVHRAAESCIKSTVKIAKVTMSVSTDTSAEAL
A short description of assay [3]: DRUGMATRIX: Platelet-Derived Growth Factor (PDGF) radioligand binding (ligand: [125I] PDGF). The assay is classed as cell-based. The following applies: nih3t3; Not Active = under 50% inhibition at 10 µM.
The next assay deals with T1, Adenosine receptor A3 (Homo sapiens, UniProt P0DMS8).
T1 sequence (P0DMS8 whole entry): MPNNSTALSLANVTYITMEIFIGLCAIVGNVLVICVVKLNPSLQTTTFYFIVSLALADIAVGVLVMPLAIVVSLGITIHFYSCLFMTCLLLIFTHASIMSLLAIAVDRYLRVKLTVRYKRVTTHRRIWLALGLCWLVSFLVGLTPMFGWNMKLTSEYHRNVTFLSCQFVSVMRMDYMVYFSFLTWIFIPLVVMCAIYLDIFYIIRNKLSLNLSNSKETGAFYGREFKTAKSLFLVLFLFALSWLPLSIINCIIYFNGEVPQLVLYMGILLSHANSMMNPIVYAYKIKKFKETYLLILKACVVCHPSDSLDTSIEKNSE
The format is cell membranes, CHO-K1, Membrane.

Chain of Platelet-activating factor receptor (P25105 whole entry): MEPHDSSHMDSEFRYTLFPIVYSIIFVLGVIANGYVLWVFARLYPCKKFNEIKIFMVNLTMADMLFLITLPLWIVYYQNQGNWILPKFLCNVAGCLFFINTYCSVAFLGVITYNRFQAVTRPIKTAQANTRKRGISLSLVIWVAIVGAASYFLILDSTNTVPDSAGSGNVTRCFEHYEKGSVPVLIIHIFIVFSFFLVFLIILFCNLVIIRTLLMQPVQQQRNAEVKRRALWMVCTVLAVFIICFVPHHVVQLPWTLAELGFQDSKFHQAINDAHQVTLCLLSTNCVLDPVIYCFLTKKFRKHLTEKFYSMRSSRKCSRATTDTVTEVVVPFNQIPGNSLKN

By IC50 is commonly meant the concentration that inhibits the measured activity by half. The term Ki denotes a dissociation constant, usually derived from enzyme kinetics or from competition with a known ligand. Regarding `Cc1cnc(NC(=O)C2=C(O)c3ccccc3S(=O)(=O)N2C)s1` [MELOXICAM], the 50% inhibitory concentration (IC50) entry (in assay [1]; in assay [2]; against Melanocortin receptor 5 (hek293); against Cannabinoid receptor 1; in assay [3]; on Adenosine receptor A3 (cho-k1)) was “Not Active” in each case. In addition, the Ki result in assay [2] and in assay [3] was “Not Active” each time.

On to `Nc1nc(N)c2nc(-c3ccccc3)c(N)nc2n1`, for which the IC50 entry (in assay [1]; in assay [2]; against Melanocortin receptor 5 (hek293); against Cannabinoid receptor 1; in assay [3]; against Adenosine receptor A3 (cho-k1)) was “Not Active” each time. The inhibition constant Ki entry in assay [2] and in assay [3] was “Not Active” in each case.

Regarding `CC(C)(C)NC[C@H](O)COc1cccc2c1CCCC2=O` [LEVOBUNOLOL], the IC50 result (in assay [1]; in assay [2]; against Melanocortin receptor 5 (hek293); on Cannabinoid receptor 1; in assay [3]; on Adenosine receptor A3 (cho-k1)) was “Not Active” in each case. Also, the Ki entry in assay [2] and in assay [3] was “Not Active” in each case.

On to `Cc1[nH]c(=O)c(C#N)cc1-c1ccncc1` [MILRINONE], for which the IC50 result (in assay [1]; in assay [2]; against Melanocortin receptor 5 (hek293); against Cannabinoid receptor 1; in assay [3]; on Adenosine receptor A3 (cho-k1)) was “Not Active” throughout. Also, the Ki entry in assay [2] and in assay [3] was “Not Active” in each case.

As to `Cc1cn([C@H]2C=C[C@@H](CO)O2)c(=O)[nH]c1=O` [STAVUDINE], the IC50 result (in assay [1]; in assay [2]; at Melanocortin receptor 5 (hek293); on Cannabinoid receptor 1; in assay [3]; on Adenosine receptor A3 (cho-k1)) was “Not Active” throughout. Further, the Ki entry in assay [2] and in assay [3] was “Not Active” in each case.

For the compound `CCOc1cc(N)c(Cl)cc1C(=O)NCC1CN(Cc2ccc(F)cc2)CCO1` (stereo unspecified) [MOSAPRIDE], the IC50 result (in assay [1]; in assay [2]; against Melanocortin receptor 5 (hek293); against Cannabinoid receptor 1; in assay [3]; against Adenosine receptor A3 (cho-k1)) was “Not Active” throughout. Moreover, the inhibition constant (Ki) entry in assay [2] and in assay [3] was “Not Active” each time.

On to `C#C[C@]1(O)CC[C@H]2[C@@H]3[C@H](C)CC4=C(CCC(=O)C4)[C@H]3CC[C@@]21C` [TIBOLONE], for which the IC50 result (in assay [1]; in assay [2]; at Melanocortin receptor 5 (hek293); against Cannabinoid receptor 1; in assay [3]; on Adenosine receptor A3 (cho-k1)) was “Not Active” throughout. The Ki entry in assay [2] and in assay [3] was “Not Active” each time.

Turning to `CC[C@H](C)[C@@H](CO[C@@H](Cc1ccccc1)C(=O)N[C@@H](CCS(C)(=O)=O)C(=O)OC(C)C)NC[C@@H](N)CS`, the IC50 entry in assay [1] was “Not Active”; in assay [2], “Not Active”; at Melanocortin receptor 5 (read-out: IC50) it was 0.122 µM; on Cannabinoid receptor 1, “Not Active”; in assay [3], “Not Active”; against Adenosine receptor A3 (cho-k1) it was “Not Active”. Also, the figures for the Ki entry (in assay [2]; on Melanocortin receptor 5 (read-out: Ki); in assay [3]) were “Not Active”, 0.114 µM and “Not Active”, respectively.

Take `OC[C@@H](O)[C@@H](O)[C@H](O)[C@H](O)CO` [MANNITOL]: the IC50 entry (in assay [1]; in assay [2]; on Melanocortin receptor 5 (hek293); on Cannabinoid receptor 1; in assay [3]; on Adenosine receptor A3 (cho-k1)) was “Not Active” in each case. Also, the Ki result in assay [2] and in assay [3] was “Not Active” each time.

Consider `O=[As][O-].[Na+]` [SODIUM ARSENITE], for which the IC50 entry (in assay [1]; in assay [2]; against Melanocortin receptor 5 (hek293); against Cannabinoid receptor 1; in assay [3]; against Adenosine receptor A3 (cho-k1)) was “Not Active” each time. The Ki entry in assay [2] and in assay [3] was “Not Active” throughout.

In the case of `Cc1cc2c(s1)Nc1ccccc1N=C2N1CCN(C)CC1` [OLANZAPINE], the IC50 result (in assay [1]; at Melanocortin receptor 5 (hek293); against Cannabinoid receptor 1; against Adenosine receptor A3 (cho-k1)) was “Not Active” each time.

With `Cc1ccc(Cl)c(Nc2ccccc2C(=O)O)c1Cl` [MECLOFENAMIC ACID], the IC50 entry (in assay [1]; in assay [2]; on Melanocortin receptor 5 (hek293); against Cannabinoid receptor 1; in assay [3]; against Adenosine receptor A3 (cho-k1)) was “Not Active” throughout. Moreover, the Ki entry in assay [2] and in assay [3] was “Not Active” throughout.

In the case of `CCOC(=O)C1=C(C)NC(C)=C(C(=O)OCC)C1c1ccccc1/C=C/C(=O)OC(C)(C)C` [LACIDIPINE], the IC50 result was “Not Active” in assay [1]; “Not Active” in assay [2]; “Not Active” on Melanocortin receptor 5 (hek293); “Not Active” on Cannabinoid receptor 1; “Not Active” in assay [3]; 4.04 µM on Adenosine receptor A3 (read-out: IC50). Also, the Ki entry is “Not Active” in assay [2], “Not Active” in assay [3] and 2.28 µM on Adenosine receptor A3 (read-out: Ki).

As for `CNCCCC12CCC(c3ccccc31)c1ccccc12` [MAPROTILINE], the IC50 entry (in assay [1]; on Melanocortin receptor 5 (hek293); at Cannabinoid receptor 1; at Adenosine receptor A3 (cho-k1)) was “Not Active” in each case.

Regarding `O=C(c1ccccc1)c1ccc2n1CCC2C(=O)O` (stereo unspecified) [KETOROLAC], the IC50 entry (in assay [1]; in assay [2]; against Melanocortin receptor 5 (hek293); at Cannabinoid receptor 1; in assay [3]; against Adenosine receptor A3 (cho-k1)) was “Not Active” each time. The Ki entry in assay [2] and in assay [3] was “Not Active” each time.

Consider `CCN(CC)N=O` [N-NITROSODIETHYLAMINE], for which the IC50 entry (in assay [1]; in assay [2]; at Melanocortin receptor 5 (hek293); on Cannabinoid receptor 1; in assay [3]; on Adenosine receptor A3 (cho-k1)) was “Not Active” throughout. The inhibitory constant (Ki) result in assay [2] and in assay [3] was “Not Active” throughout.

With `CO[C@@]12[C@H](COC(N)=O)C3=C(C(=O)C(C)=C(N)C3=O)N1C[C@@H]1N[C@@H]12` [MITOMYCIN], the IC50 entry (in assay [1]; in assay [2]; against Melanocortin receptor 5 (hek293); against Cannabinoid receptor 1; in assay [3]; at Adenosine receptor A3 (cho-k1)) was “Not Active” in each case. Also, the Ki entry in assay [2] and in assay [3] was “Not Active” throughout.

As to `Cc1ccc(S(=O)(=O)NC(=O)NN2CCCCCC2)cc1` [TOLAZAMIDE], the IC50 result (in assay [1]; in assay [2]; on Melanocortin receptor 5 (hek293); on Cannabinoid receptor 1; in assay [3]; against Adenosine receptor A3 (cho-k1)) was “Not Active” in each case. The Ki entry in assay [2] and in assay [3] was “Not Active” throughout.

As to `CCC(C)(C)C(=O)O[C@H]1C[C@@H](C)C=C2C=C[C@H](C)[C@H](CC[C@@H]3C[C@@H](O)CC(=O)O3)[C@H]21` [SIMVASTATIN], the IC50 result (in assay [1]; in assay [2]; at Melanocortin receptor 5 (hek293); on Cannabinoid receptor 1; in assay [3]; on Adenosine receptor A3 (cho-k1)) was “Not Active” in each case. For the same compound, the Ki entry in assay [2] and in assay [3] was “Not Active” in each case.

In the case of LEAD(IV) ACETATE, the IC50 entry (in assay [1]; in assay [2]; against Melanocortin receptor 5 (hek293); at Cannabinoid receptor 1; in assay [3]; against Adenosine receptor A3 (cho-k1)) was “Not Active” each time. For the same compound, the Ki result (in assay [1]; in assay [2]; on Melanocortin receptor 5 (hek293); on Cannabinoid receptor 1; in assay [3]; at Adenosine receptor A3 (cho-k1)) was “Not Active” throughout.

On to `CCN1CCCC1CNC(=O)c1cc(S(N)(=O)=O)ccc1OC` (stereo unspecified) [SULPIRIDE], for which the IC50 entry (in assay [1]; in assay [2]; at Melanocortin receptor 5 (hek293); at Cannabinoid receptor 1; in assay [3]; on Adenosine receptor A3 (cho-k1)) was “Not Active” each time. The Ki result in assay [2] and in assay [3] was “Not Active” throughout.

In the case of `CC[C@H](C)C(=O)O[C@H]1CCC=C2C=C[C@H](C)[C@H](CC[C@@H]3C[C@@H](O)CC(=O)O3)[C@H]21` [MEVASTATIN], the half-maximal inhibitory concentration (IC50) entry (in assay [1]; in assay [2]; at Melanocortin receptor 5 (hek293); against Cannabinoid receptor 1; in assay [3]; against Adenosine receptor A3 (cho-k1)) was “Not Active” each time. The Ki result in assay [2] and in assay [3] was “Not Active” each time.

As to `CN1C[C@H](CNC(=O)OCc2ccccc2)C[C@@H]2c3cccc4c3c(cn4C)C[C@H]21` [METERGOLINE], the IC50 result is “Not Active” in assay [1]; 0.278 µM in assay [2] (read-out: IC50); “Not Active” at Melanocortin receptor 5 (hek293); “Not Active” on Cannabinoid receptor 1; “Not Active” in assay [3]; “Not Active” on Adenosine receptor A3 (cho-k1). For the same compound, the values for the Ki in assay [2] (read-out: Ki) and in assay [3] were 0.27 µM and “Not Active”, respectively.

On to `CN(C)CCC=C1c2ccccc2COc2ccccc21` [DOXEPIN], for which the IC50 entry (in assay [1]; on Melanocortin receptor 5 (hek293); on Cannabinoid receptor 1; against Adenosine receptor A3 (cho-k1)) was “Not Active” in each case.
